# From PubChem BioAssay AID1259411 (Chemical Carcinogenesis Research Information System (CCRIS), 2018)
# Active and inactive are the calls of the source. How the calls were made is not given here.
# System: rodent carcinogenicity bioassays, tumor incidence
# Assay: CCRIS carcinogenicity studies
# Conditions: Species: RAT
# Excerpt: The CCRIS database contains chemical records with carcinogenicity, mutagenicity, tumor promotion, and tumor inhibition test results. It was developed by the National Cancer Institute (NCI). Data are derived from studies cited in primary journals, current awareness tools, NCI reports, and other sources. Test results have been reviewed by experts in carcinogenesis and mutagenesis.
# CCRIS provides historical information from the years 1985 - 2011. It is no longer updated.
# This is an archive assay for CCRIS carcinogenicity studies.
structure (smiles),measurement,setting,value
C=CCl,carcinogen call,"Strain/Sex: SPRAGUE-DAWLEY/FEMALE, Route: INHALATION, Dose: 0, 6000, 10000 PPM IN AIR 4 HR/D 1 D/WK FOR 25 WK (STUDY DURATION: LIFETIME), Dose: 0, 6000, 10000 PPM IN AIR 4 HR/D 1 D/WK FOR 25 WK (STUDY DURATION: LIFETIME), Tumor Site: Type of Lesion: [BRAIN WAS ONLY SITE EVALUATED]",inactive; negative
same,carcinogen call,"Strain/Sex: SPRAGUE-DAWLEY/FEMALE, Route: INHALATION, Dose: 0, 6000, 10000 PPM IN AIR 4 HR/D 5 D/WK FOR 5 WK (STUDY DURATION: LIFETIME), Dose: 0, 6000, 10000 PPM IN AIR 4 HR/D 5 D/WK FOR 5 WK (STUDY DURATION: LIFETIME), Tumor Site: Type of Lesion: [BRAIN WAS ONLY SITE EVALUATED]",inactive; negative
same,carcinogen call,"Strain/Sex: SPRAGUE-DAWLEY/MALE,FEMALE, Route: GAVAGE, Dose: 0, 3.33, 16.65, 50.0 MG/KG IN OLIVE OIL 1/D, 4-5 D/WK FOR 52 WK (STUDY DURATION: 136 WK), Dose: 0, 3.33, 16.65, 50.0 MG/KG IN OLIVE OIL 1/D, 4-5 D/WK FOR 52 WK (STUDY DURATION: 136 WK), Tumor Site: Type of Lesion: LIVER: ANGIOSARCOMA",active; positive
same,carcinogen call,"Strain/Sex: SPRAGUE-DAWLEY/MALE,FEMALE, Route: INHALATION, Dose: 0, 50-10000 PPM 4 HR/D, 5 D/WK FOR 52 WK (STUDY DURATION: 135 WK), Tumor Site: Type of Lesion: LIVER: ANGIOSARCOMA, NERVOUS SYSTEM: NEUROBLASTOMA, EAR (ZYMBAL GLAND): CARCINOMA, KIDNEY: NEPHROBLASTOMA, Tumor Site: Type of Lesion: LIVER: ANGIOSARCOMA, NERVOUS SYSTEM: NEUROBLASTOMA, EAR (ZYMBAL GLAND): CARCINOMA, KIDNEY: NEPHROBLASTOMA",active; positive
same,carcinogen call,"Strain/Sex: SPRAGUE-DAWLEY/MALE, Route: GAVAGE, Dose: 0, 0.03, 0.3, 1, 3.33, 16.65, 50 MG/KG BW IN OLIVE OIL 1/D 4-5 D/WK FOR 52-59 WK (STUDY DURATION: LIFETIME), Dose: 0, 0.03, 0.3, 1, 3.33, 16.65, 50 MG/KG BW IN OLIVE OIL 1/D 4-5 D/WK FOR 52-59 WK (STUDY DURATION: LIFETIME), Tumor Site: Type of Lesion: [BRAIN WAS ONLY SITE EVALUATED]",inactive; negative
same,carcinogen call,"Strain/Sex: SPRAGUE-DAWLEY/MALE, Route: INHALATION, Dose: 0, 600 PPM 4 HR/D, 5 D/WK FOR 1 YR (STUDY DURATION: 2.5 YR), Tumor Site: Type of Lesion: LIVER: HEPATOCELLULAR CARCINOMA, ANGIOSARCOMA",active; positive
same,carcinogen call,"Strain/Sex: SPRAGUE-DAWLEY/MALE, Route: INHALATION, Dose: 0, 2500 PPM 4 HR/D 5 D/WK FOR 7 WK THEN 7 HR/D 5 D/WK FOR 8 WK ADMINISTERED TO RAT EMBRYOS BEGINNING ON 12TH DAY OF GEST, Tumor Site: Type of Lesion: LIVER: HEPATOMA, ANGIOSARCOMA, BRAIN: NEUROBLASTOMA",active; positive
same,carcinogen call,"Strain/Sex: SPRAGUE-DAWLEY/MALE, Route: INHALATION, Dose: 0, 2500 PPM 4 HR/D 5 D/WK FOR 7 WK THEN 7 HR/D 5 D/WK FOR 69 WK ADMINISTERED TO RAT EMBRYOS BEGINNING ON 12TH DAY OF GES, Tumor Site: Type of Lesion: BRAIN: NEUROBLASTOMA, LIVER, HEPATOCARCINOMA, ANGIOSARCOMA, Tumor Site: Type of Lesion: BRAIN: NEUROBLASTOMA, LIVER, HEPATOCARCINOMA, ANGIOSARCOMA",active; positive
same,carcinogen call,"Strain/Sex: SPRAGUE-DAWLEY/MALE, Route: INHALATION, Dose: 0, 6000, 10000 PPM IN AIR 1 HR/D 4 D/WK FOR 25 WK (STUDY DURATION: LIFETIME), Dose: 0, 6000, 10000 PPM IN AIR 1 HR/D 4 D/WK FOR 25 WK (STUDY DURATION: LIFETIME), Tumor Site: Type of Lesion: [BRAIN WAS ONLY SITE EVALUATED]",inactive; negative
same,carcinogen call,"Strain/Sex: SPRAGUE-DAWLEY/MALE, Route: INHALATION, Dose: 0, 6000, 10000 PPM IN AIR 4 HR/D 1 D/WK FOR 25 WK (STUDY DURATION: LIFETIME), Dose: 0, 6000, 10000 PPM IN AIR 4 HR/D 1 D/WK FOR 25 WK (STUDY DURATION: LIFETIME), Tumor Site: Type of Lesion: [BRAIN WAS ONLY SITE EVALUATED]",inactive; negative
same,carcinogen call,"Strain/Sex: SPRAGUE-DAWLEY/MALE, Route: INHALATION, Dose: 0, 6000, 10000 PPM IN AIR 4 HR/D 5 D/WK FOR 5 WK (STUDY DURATION: LIFETIME), Dose: 0, 6000, 10000 PPM IN AIR 4 HR/D 5 D/WK FOR 5 WK (STUDY DURATION: LIFETIME), Tumor Site: Type of Lesion: [BRAIN WAS ONLY SITE EVALUATED]",inactive; negative
same,carcinogen call,"Strain/Sex: SPRAGUE-DAWLEY, Route: ORAL, Tumor Site: Type of Lesion: LIVER",active; positive
same,carcinogen call,"Strain/Sex: WISTAR/FEMALE, Route: ORAL, Dose: 0, 0.014, 0.13, 1.3 MG/KG/BW/D IN DIET FOR DURATION OF STUDY (STUDY DURATION: 150 WK), Dose: 0, 0.014, 0.13, 1.3 MG/KG/BW/D IN DIET FOR DURATION OF STUDY (STUDY DURATION: 150 WK), Tumor Site: Type of Lesion: LIVER: NEOPLASTIC NODULES",active; positive
same,carcinogen call,"Strain/Sex: WISTAR/MALE, Route: INHALATION, Dose: 0, 1, 50, 250, 500, 2500, 6000, 10000 PPM 4 HR/D, 5 D/WK FOR 52 WK (STUDY DURATION: 134-165 WK), Dose: 0, 1, 50, 250, 500, 2500, 6000, 10000 PPM 4 HR/D, 5 D/WK FOR 52 WK (STUDY DURATION: 134-165 WK), Tumor Site: Type of Lesion: LIVER: ANGIOSARCOMA, NERVOUS SYSTEM: NEUROBLASTOMA",active; positive
same,carcinogen call,"Strain/Sex: WISTAR/MALE, Route: ORAL, Dose: 0, 0.014, 0.13, 1.3 MG/KG/BW/D IN DIET FOR DURATION OF STUDY (STUDY DURATION: 149 WK), Dose: 0, 0.014, 0.13, 1.3 MG/KG/BW/D IN DIET FOR DURATION OF STUDY (STUDY DURATION: 149 WK), Tumor Site: Type of Lesion: LIVER: HEPATOCELLULAR CARCINOMA",active; positive
